From patent publication US5786355A, “4,6-diarylpyrimidine derivatives and salts thereof” (Taiho Pharmaceutical Co., Ltd., priority 1995, dated 1998)

Key:
[1] = J. INDIAN CHEM. SOC., 70, 266-267(1993); cited from earlier work
[2] = tested on: HUVEC (human umbilical vein endothelial cell); experiment: HUVEC growth inhibition (3H-thymidine uptake); type: cell-based; details: 3000 cells per well, RPMI-1640 with ECGS, EGF and 2% serum, 48 hours + 17 hours with 3H-thymidine, control as 100%, read-out: IC50 (concentration showing a 50% growth inhibitory activity)
Procedure: To a 96-well microplate, HUVEC (human umbilical vein endothelial cell; product of Kurabo Industries Ltd.) was added in an amount of 3000 cells per well, followed by culturing in 200 μl of RPMI-1640 medium (Nissui Pharmaceutical Co., Ltd.) containing 10 μg/ml of ECGS (Endothelial Cell Growth Supplement; Collaborative Co., Ltd.), 3 ng/ml of EGF ([…]; product of Genzyme Co., Ltd.) and 2% fatal calf serum at 37° C. for 48 hours using 5% CO2. To each well, 0.1 μCi (3.7 KBq) of ^3 H-Tymidine was added, followed by culturing for 17 hours. Then, the cells were collected on a glass filter and washed with 5% trichloroacetic acid and ethanol. The radioactivity taken in was measured by a β-plate (Pharmacia Laboratories, Inc.). The concentration showing a 50% growth inhibitory activity (IC50) was calculated with a control as 100%.

Row | Structure (SMILES) | antibacterial activity [1] | IC50 [2]
1 | COc1ccc(-c2cc(-c3ccc(OC)c(OC)c3)nc(N)n2)c(OC)c1 [2-amino-4-(2,4-dimethoxyphenyl)-6-(3,4-dimethoxyphenyl)pyrimidine] | no antibacterial activity | –
2 | COc1cc(OC)c(-c2cc(-c3cc(OC)c(OC)cc3OC)nc(N(C)C)n2)cc1OC [Compound 2] | – | 220 nM
3 | COc1cc(OC)c(-c2cc(-c3cc(OC)c(OC)cc3OC)nc(N)n2)cc1OC [Compound 3] | – | 250 nM
4 | COc1cc(OC)c(-c2cc(-c3ccc(OCCN(C)C)cc3)nc(N(C)C)n2)cc1OC [Compound 8] | – | 1100 nM
5 | CCN(CC)c1nc(-c2cc(OC)c(OC)cc2OC)cc(-c2cc(OC)c(OC)cc2OC)n1 [Compound 9] | – | 360 nM
6 | CCN(CC)c1nc(-c2ccc(OC)cc2OC)cc(-c2cc(OC)c(OC)cc2OC)n1 [Compound 17] | – | 530 nM
7 | CCN(CC)c1nc(-c2cc(OC)c(OC)c(OC)c2)cc(-c2cc(OC)c(OC)cc2OC)n1 [Compound 20, 2-diethylamino-4-(3,4,5-trimethoxyphenyl)-6-(2,4,5-trimethoxyphenyl)pyrimidine] | – | 530 nM
8 | COc1cc(OC)c(-c2cc(-c3cc(OC)c(O)c(OC)c3)nc(N(C)C)n2)cc1OC [Compound 24] | – | 210 nM
9 | COc1cc(NS(C)(=O)=O)c(-c2cc(-c3cc(OC)c(OC)cc3OC)nc(N(C)C)n2)cc1OC [Compound 27] | – | 68 nM
10 | COc1cc(OC)c(-c2cc(-c3nccs3)nc(N(C)C)n2)cc1OC [Compound 30] | – | 700 nM
11 | COc1cc(OC)c(-c2cc(-c3cc(OC)c(OC)cc3OC)nc(NS(C)(=O)=O)n2)cc1OC [Compound 31] | – | 520 nM
12 | CCN(CC)c1nc(-c2ccc(OCCN3CCCCC3)cc2)cc(-c2cc(OC)c(OC)cc2OC)n1 [Compound 41] | – | 1700 nM
13 | CCN(CC)c1nc(-c2ccc(OP(=O)(O)O)cc2)cc(-c2cc(OC)c(OC)cc2OC)n1 [Compound 43] | – | 330 nM
